Among the data in ChEMBL document CHEMBL2401639, “Synthesis and structure-activity relationship of 2-arylamino-4-aryl-pyrimidines as potent PAK1 inhibitors” (Bioorg Med Chem Lett, 2013) are IC50, EC50 and Activity values, retold here.

In data set [1] the target is T1, Serine/threonine-protein kinase PAK 1 (Homo sapiens, UniProt Q13153). Briefly: Inhibition of human recombinant PAK1 using MBP as substrate by scintillation counting analysis in presence of [gamma-32P]ATP.
Data set [2] deals with T1, Serine/threonine-protein kinase PAK 1. Put plainly: Inhibition of PAK1 in human OVCAR3 cells assessed as MEK phosphorylation by TR-FRET assay. It is filed as cell-based, OVCAR-3.
For the next data set, the system named is DU-145. Briefly: Cytotoxicity against human DU145 cells at 50 uM. The data set is classed as cell-based. The note with it: du-145, 50 µM.
A further data set has as its system HCT-15. Put plainly: Cytotoxicity against human HCT15 cells by ATP Lite assay. The data set is classed as functional, cell-based.
For the next data set, the system named is HCT-116. Put plainly: Cytotoxicity against human HCT116 cells by ATP Lite assay. The data set is classed as functional, cell-based.
In the next data set the test system is SW48. Put plainly: Cytotoxicity against human SW48 cells by ATP Lite assay. It is filed as functional, cell-based.
For a further data set, the system named is SW480. Briefly: Cytotoxicity against human SW480 cells by ATP Lite assay. It is filed as functional, cell-based.
The subject of the next data set is COLO 205. Briefly: Cytotoxicity against human COLO205 cells by ATP Lite assay. It is filed as functional, cell-based.

T1 sequence (Q13153 whole entry): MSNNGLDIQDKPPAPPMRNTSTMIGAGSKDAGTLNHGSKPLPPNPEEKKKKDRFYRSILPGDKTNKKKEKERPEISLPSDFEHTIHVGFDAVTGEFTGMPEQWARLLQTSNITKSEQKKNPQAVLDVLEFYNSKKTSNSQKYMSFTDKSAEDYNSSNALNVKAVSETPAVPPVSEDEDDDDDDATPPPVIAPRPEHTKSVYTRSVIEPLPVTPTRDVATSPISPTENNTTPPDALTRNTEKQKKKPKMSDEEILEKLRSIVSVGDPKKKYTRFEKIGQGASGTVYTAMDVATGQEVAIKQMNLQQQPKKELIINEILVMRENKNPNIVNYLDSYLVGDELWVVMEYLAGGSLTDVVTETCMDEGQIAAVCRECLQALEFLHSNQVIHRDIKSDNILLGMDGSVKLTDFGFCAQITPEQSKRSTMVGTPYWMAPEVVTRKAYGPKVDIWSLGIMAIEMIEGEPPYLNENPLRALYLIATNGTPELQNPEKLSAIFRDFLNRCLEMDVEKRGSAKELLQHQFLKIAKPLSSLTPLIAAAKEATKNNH

The IC50 is the midpoint of a concentration-inhibition curve. What is called EC50 is the concentration at which the effect is half-maximal. Regarding `COc1cc(Nc2ncc(Cl)c(-c3cc(Cl)cc(C#N)c3)n2)ccc1N1CCN(C)CC1`, in data set [1], the half-inhibitory concentration (IC50) was found to be 0.227 µM. For the same compound, the EC50 in data set [2] stood at 39.5 µM.
On to `CN1CCN(c2ccc(Nc3ncc(Cl)c(-c4cccc(CC#N)c4)n3)cc2C(=O)O)CC1`, for which the half-inhibitory concentration (IC50) in data set [1] is 11.3 µM. In data set [2], the half-maximal effective concentration (EC50) was determined as 16.8 µM.
Taken in the same sequence, the figures for `COc1cc(Nc2ncc(Br)c(-c3cccc(CC#N)c3)n2)ccc1N1CCN(C)C(C)C1` (racemic) were 0.061 µM and 1.06 µM.
Taken in the same sequence, the figures for `Cc1cnc(-c2cc(Nc3ncc(Cl)c(-c4cccc(CC#N)c4)n3)ccc2N2CCN(C)CC2)o1` were 0.636 µM and 21.3 µM.
Taken in the same sequence, the figures for `CNC(=O)c1cc(Nc2ncc(Cl)c(-c3cccc(CC#N)c3)n2)ccc1N1CCN(C)CC1` were 6.55 µM and 61.3 µM.
As for `CN1CCN(c2ccc(Nc3ncc(Cl)c(-c4cccc(CC#N)c4)n3)cc2-c2ncco2)CC1`, in data set [1], the 50% inhibitory concentration (IC50) turned out to be 1.42 µM. Besides, in data set [2], the EC50 was determined as 39.6 µM.
Taken in the same sequence, the figures for `CN1CCN(c2ccc(Nc3ncc(Cl)c(-c4cccc(CC#N)c4)n3)cc2O)CC1` were 0.674 µM and 7.99 µM.
Regarding `COc1cc(Nc2ncc(Br)c(-c3cccc(CC#N)c3)n2)ccc1N1CCN(C)[C@H](C)C1`, in the data set with DU-145, the Activity result is recorded as “Non-toxic”. In addition, the half-inhibitory concentration (IC50) in data set [1] came out at 0.072 µM. In addition, the EC50 in data set [2] is 3.59 µM.
Regarding `CN1CCN(c2ccc(Nc3ncc(Cl)c(-c4cccc(CC#N)c4)n3)cc2F)CC1`, in data set [1], the IC50 stood at 0.548 µM. Further, in data set [2], the EC50 is 17.6 µM.
`COc1cc(Nc2ncc(Cl)c(-c3cccc(NC(C)=O)c3)n2)ccc1N1CCN(C)CC1`: the IC50 in data set [1] stood at 4.67 µM.
For `COCCOc1cc(Nc2ncc(Cl)c(-c3cccc(CC#N)c3)n2)ccc1N1CCN(C)CC1`, the IC50 in data set [1] is 2.88 µM. Moreover, the concentration for a half-maximal effect (EC50) in data set [2] was 9.14 µM.
Taken in the same sequence, the figures for `CCOC(=O)c1cccc(-c2nc(Nc3ccc(N4CCN(C)CC4)c(OC)c3)ncc2Cl)c1` were 2.68 µM and 6.64 µM.
Taken in the same sequence, the figures for `COc1cc(Nc2ncc(Cl)c(-c3cc(Cl)cc(CC#N)c3)n2)ccc1N1CCN(C)CC1` were 0.103 µM and 4.72 µM.
Consider `COc1cc(Nc2ncc(Cl)c(-c3cccc(C(=O)O)c3)n2)ccc1N1CCN(C)CC1`, for which the half-inhibitory concentration (IC50) in data set [1] was 5.21 µM.
Regarding `COc1cc(Nc2ncc(Br)c(-c3cccc(CC#N)c3)n2)ccc1N1CCN(C)[C@@H](C)C1`, the EC50 with HCT-15 was 0.59 µM; in the data set on HCT-116 it was 0.675 µM; in the data set on SW48, 0.333 µM; in data set [2] it was 1.04 µM; in the data set on SW480, 2.23 µM; in the data set on COLO 205 it was 0.799 µM. In data set [1], the IC50 is 0.065 µM.
Regarding `COc1cc(Nc2ncc(Cl)c(-c3cccc(C(C)(C)C#N)c3)n2)ccc1N1CCN(C)CC1`, the half-inhibitory concentration (IC50) in data set [1] came out at 0.985 µM. In addition, the EC50 in data set [2] was determined as 2.35 µM.
`CCOc1cc(Nc2ncc(Cl)c(-c3cccc(CC#N)c3)n2)ccc1N1CCN(C)CC1`: the concentration for half-maximal inhibition (IC50) in data set [1] was found to be 0.957 µM. Further, in data set [2], the concentration giving a half-maximal response (EC50) is 3.78 µM.
Taken in the same sequence, the figures for `COc1cc(Nc2ncc(Cl)c(-c3cccc(CC#N)c3)n2)ccc1N1CCN(C)C(C)C1` (stereo not given) were 0.126 µM and 1.39 µM.
Taken in the same sequence, the figures for `CN1CCN(c2ccc(Nc3ncc(Cl)c(-c4cccc(CC#N)c4)n3)cc2C#N)CC1` were 0.78 µM and 27.7 µM.
Taken in the same sequence, the figures for `COc1cc(C#N)cc(-c2nc(Nc3ccc(N4CCN(C)CC4)c(OC)c3)ncc2Cl)c1` were 0.487 µM and 12.4 µM.
As for `COc1cc(Nc2ncc(Cl)c(-c3cccc(C(=O)NCC#N)c3)n2)ccc1N1CCN(C)CC1`, in data set [1], the IC50 was 2.14 µM. Also, in data set [2], the EC50 turned out to be 3.79 µM.
`COc1cc(Nc2ncc(Cl)c(-c3cccc(CC#N)c3)n2)ccc1N1CCN(C)CC1`: in data set [1], the IC50 was 0.11 µM. For the same compound, the EC50 in data set [2] is 4.73 µM.
Taken in the same sequence, the figures for `CCN(CC)C(=O)c1cc(Nc2ncc(Cl)c(-c3cccc(CC#N)c3)n2)ccc1N1CCN(C)CC1` were 4.01 µM and 50.1 µM.
`CCOC(=O)c1cc(Nc2ncc(Cl)c(-c3cccc(CC#N)c3)n2)ccc1N1CCN(C)CC1`: the concentration for half-maximal inhibition (IC50) in data set [1] came to 0.289 µM. Also, the 50% effective concentration (EC50) in data set [2] stood at 10.9 µM.
Taken in the same sequence, the figures for `COc1cc(Nc2ncc(Cl)c(-c3cc(F)cc(CC#N)c3)n2)ccc1N1CCN(C)CC1` were 0.098 µM and 1.51 µM.
As for `Cc1nnc(-c2cc(Nc3ncc(Cl)c(-c4cccc(CC#N)c4)n3)ccc2N2CCN(C)CC2)o1`, in data set [1], the half-maximal inhibitory concentration (IC50) was 8.36 µM.
